# Results: patent US20140107100A1, “Benzoxazepines as Inhibitors of PI3K/mTOR and Methods of Their Use and Manufacture” (EXELIXIS, INC., priority 2010, published 2014)
# Target: mTOR/GbL/Raptor (mTORC1) (Homo sapiens, UniProt P42345)
# Assay: mTOR/GbL/Raptor (mTORC1) ELISA assay, phosphorylation of 4E-BP1
# Type: biochemical
# Settings: 0.2 nM mTORC1, 40 uM ATP, 50 nM NHis-tagged 4E-BP1, 120 minutes; read-out: IC50 in this assay (mTORC1 ELISA)
# How it was run: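 Phospho-4E-BP1 was quantified by luminescent ELISA (anti-phospho-4E-BP1 IgG, HRP-tagged secondary) after capture of the His-tagged substrate on Ni-chelate plates.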
row,Compound,IC50 [nM]
1,"Cc1cc(-c2cnc3sc(N)nc3c2)cc2c1OCCN(c1nc(CNC(C)(C)C)nc(C)c1C(C)C)C2 [Compound 90, 6-{4-[2-{[(1,1-dimethylethyl)amino]methyl}-6-methyl-5-(1-methylethyl)pyrimidin-4-yl]-9-methyl-2,3,4,5-tetrahydro-1,4-benzoxazepin-7-yl}[1,3]thiazolo[5,4-b]pyridin-2-amine]",≤ 100
2,"Cc1cc(-c2cnc3sc(N)nc3c2)cc2c1OCCN(c1nc(CN3CCCC3)ncc1C(C)C)C2 [Compound 92, 6-{9-methyl-4-[5-(1-methylethyl)-2-(pyrrolidin-1-ylmethyl)pyrimidin-4-yl]-2,3,4,5-tetrahydro-1,4-benzoxazepin-7-yl}[1,3]thiazolo[5,4-b]pyridin-2-amine]",≤ 100
3,"COCc1nc(C)c(C(C)C)c(N2CCOc3c(C)cc(-c4cnc5sc(N)nc5c4)cc3C2)n1 [Compound 93, 6-(9-methyl-4-{6-methyl-5-(1-methylethyl)-2-[(methyloxy)methyl]pyrimidin-4-yl}-2,3,4,5-tetrahydro-1,4-benzoxazepin-7-yl)[1,3]thiazolo[5,4-b]pyridin-2-amine]",≤ 100
4,"Cc1cc(-c2cnc3sc(N)nc3c2)cc2c1OCCN(c1nc(C(O)C(F)(F)F)nc(C)c1C(C)C)C2 (stereo not shown) [Compound 94, 1-{4-[7-(2-amino[1,3]thiazolo[5,4-b]pyridin-6-yl)-9-methyl-2,3-dihydro-1,4-benzoxazepin-4(5H)-yl]-6-methyl-5-(1-methylethyl)pyrimidin-2-yl}-2,2,2-trifluoroethanol]",≤ 100
5,"Cc1cc(-c2cnc3sc(N)nc3c2)cc2c1OCCN(c1nc([S+](C)[O-])nc(C)c1C(C)C)C2 (stereo not shown) [Compound 99, 6-{9-methyl-4-[6-methyl-5-(1-methylethyl)-2-(methylsulfinyl)pyrimidin-4-yl]-2,3,4,5-tetrahydro-1,4-benzoxazepin-7-yl}[1,3]thiazolo[5,4-b]pyridin-2-amine]",≤ 100
6,"Cc1cc(-c2cnc3sc(N)nc3c2)cc2c1OCCN(c1nc(CNCC(F)(F)F)nc(C)c1C(C)C)C2 [Compound 103, 6-{9-methyl-4-[6-methyl-5-(1-methylethyl)-2-{[(2,2,2-trifluoroethyl)amino]methyl}pyrimidin-4-yl]-2,3,4,5-tetrahydro-1,4-benzoxazepin-7-yl}[1,3]thiazolo[5,4-b]pyridin-2-amine]",100 to 500
7,"Cc1nc(C)c(C(C)C)c(N2CCOc3c(C)cc(-c4cnc5sc(N)nc5c4)cc3C2)n1 [Compound 104, 6-{4-[2,6-dimethyl-5-(1-methylethyl)pyrimidin-4-yl]-9-methyl-2,3,4,5-tetrahydro-1,4-benzoxazepin-7-yl}[1,3]thiazolo[5,4-b]pyridin-2-amine]",≤ 100
8,"Cc1cc(-c2cnc3sc(N)nc3c2)cc2c1OCCN(c1nc(CC#N)nc(C)c1C(C)C)C2 [Compound 105, {4-[7-(2-amino[1,3]thiazolo[5,4-b]pyridin-6-yl)-9-methyl-2,3-dihydro-1,4-benzoxazepin-4(5H)-yl]-6-methyl-5-(1-methylethyl)pyrimidin-2-yl}acetonitrile]",≤ 100
9,"CCn1cc(-c2cc(C)c3c(c2)CN(c2nc(N)nc(C)c2C(C)C)CCO3)cn1 [Compound 111, 4-[7-(1-ethyl-1H-pyrazol-4-yl)-9-methyl-2,3-dihydro-1,4-benzoxazepin-4(5H)-yl]-6-methyl-5-(1-methylethyl)pyrimidin-2-amine]",100 to 500
10,"CNc1nc(-c2cc(C)c3c(c2)CN(c2nc(N)nc(C)c2C(C)C)CCO3)cs1 [Compound 112, 4-methyl-5-(1-methylethyl)-6-{9-methyl-7-[2-(methylamino)-1,3-thiazol-4-yl]-2,3-dihydro-1,4-benzoxazepin-4(5H)-yl}pyrimidin-2-amine]",100 to 500
11,"CSc1nc(Cl)c(C(C)(C)O)c(N2CCOc3c(C)cc(-c4cnc5sc(N)nc5c4)cc3C2)n1 [Compound 114, 2-{4-[7-(2-amino[1,3]thiazolo[5,4-b]pyridin-6-yl)-9-methyl-2,3-dihydro-1,4-benzoxazepin-4(5H)-yl]-6-chloro-2-(methylthio)pyrimidin-5-yl}propan-2-ol]",100 to 500
12,"C=Cc1c(C)ncnc1N1CCOc2c(C)cc(-c3cnc4sc(N)nc4c3)cc2C1 [Compound 115, 6-[4-(5-ethenyl-6-methylpyrimidin-4-yl)-9-methyl-2,3,4,5-tetrahydro-1,4-benzoxazepin-7-yl][1,3]thiazolo[5,4-b]pyridin-2-amine]",≤ 100
13,"Cc1cc(-c2cnn(C)c2)cc2c1OCCN(c1nc(N)nc(C)c1C(C)C)C2 [Compound 117, 4-methyl-5-(1-methylethyl)-6-[9-methyl-7-(1-methyl-1H-pyrazol-4-yl)-2,3-dihydro-1,4-benzoxazepin-4(5H)-yl]pyrimidin-2-amine]",100 to 500
14,"Cc1ncc(-c2cc(C)c3c(c2)CN(c2nc(N)nc(C)c2C(C)C)CCO3)s1 [Compound 118, 4-methyl-5-(1-methylethyl)-6-[9-methyl-7-(2-methyl-1,3-thiazol-5-yl)-2,3-dihydro-1,4-benzoxazepin-4(5H)-yl]pyrimidin-2-amine]",100 to 500
15,"Cc1cc(-c2cnc3sc(N)nc3c2)cc2c1OCCN(c1nc(CF)nc(C)c1C(C)C)C2 [Compound 120, 6-{4-[2-(fluoromethyl)-6-methyl-5-(1-methylethyl)pyrimidin-4-yl]-9-methyl-2,3,4,5-tetrahydro-1,4-benzoxazepin-7-yl}[1,3]thiazolo[5,4-b]pyridin-2-amine]",≤ 100
16,"Cc1cc(-c2cnc3sc(N)nc3c2)cc2c1OCCN(c1nc(CNC3CC3)nc(C)c1C(C)C)C2 [Compound 121, 6-(4-{2-[(cyclopropylamino)methyl]-6-methyl-5-(1-methylethyl)pyrimidin-4-yl}-9-methyl-2,3,4,5-tetrahydro-1,4-benzoxazepin-7-yl)[1,3]thiazolo[5,4-b]pyridin-2-amine]",≤ 100
17,"C=C(C)c1c(C)ncnc1N1CCOc2c(C)cc(-c3cnc4sc(N)nc4c3)cc2C1 [Compound 124, 6-{9-methyl-4-[6-methyl-5-(1-methylethenyl)pyrimidin-4-yl]-2,3,4,5-tetrahydro-1,4-benzoxazepin-7-yl}[1,3]thiazolo[5,4-b]pyridin-2-amine]",≤ 100
18,"Cc1cc(-c2cnc3sc(N)nc3c2)cc2c1OCCN(c1nc(CNCCF)nc(C)c1C(C)C)C2 [Compound 126, 6-{4-[2-{[(2-fluoroethyl)amino]methyl}-6-methyl-5-(1-methylethyl)pyrimidin-4-yl]-9-methyl-2,3,4,5-tetrahydro-1,4-benzoxazepin-7-yl}[1,3]thiazolo[5,4-b]pyridin-2-amine]",≤ 100

# More lines, now with the values ahead:
row,IC50 [nM],Compound
1,≤ 100,"Cc1cc(-c2cnc3sc(N)nc3c2)cc2c1OCCN(c1nc(CN3CCC(F)(F)C3)nc(C)c1C(C)C)C2 [Compound 91, 6-(4-{2-[(3,3-difluoropyrrolidin-1-yl)methyl]-6-methyl-5-(1-methylethyl)pyrimidin-4-yl}-9-methyl-2,3,4,5-tetrahydro-1,4-benzoxazepin-7-yl)[1,3]thiazolo[5,4-b]pyridin-2-amine]"
2,≤ 100,"Cc1cc(-c2cnc3sc(N)nc3c2)cc2c1OCCN(c1nc(C(C)O)nc(C)c1C(C)C)C2 (stereo not shown) [Compound 98, 1-{4-[7-(2-amino[1,3]thiazolo[5,4-b]pyridin-6-yl)-9-methyl-2,3-dihydro-1,4-benzoxazepin-4(5H)-yl]-6-methyl-5-(1-methylethyl)pyrimidin-2-yl}ethanol]"
3,100 to 500,"Cc1cc(-c2cnc3sc(N)nc3c2)cc2c1OCCN(c1nc(CN(C)C(C)(C)C)nc(C)c1C(C)C)C2 [Compound 100, 6-{4-[2-{[(1,1-dimethylethyl)(methyl)amino]methyl}-6-methyl-5-(1-methylethyl)pyrimidin-4-yl]-9-methyl-2,3,4,5-tetrahydro-1,4-benzoxazepin-7-yl}[1,3]thiazolo[5,4-b]pyridin-2-amine]"
4,≤ 100,"CC(=O)Nc1ncc(-c2cc(C)c3c(c2)CN(c2nc(N)nc(C)c2C(C)C)CCO3)s1 [Compound 106, N-(5-{4-[2-amino-6-methyl-5-(1-methylethyl)pyrimidin-4-yl]-9-methyl-2,3,4,5-tetrahydro-1,4-benzoxazepin-7-yl}-1,3-thiazol-2-yl)acetamide]"
5,≤ 100,"Cc1ncc(C(C)C)c(N2CCOc3c(C)cc(-c4cnc5sc(N)nc5c4)cc3C2)n1 [Compound 107, 6-{9-methyl-4-[2-methyl-5-(1-methylethyl)pyrimidin-4-yl]-2,3,4,5-tetrahyro-1,4-benzoxazepin-7-yl}[1,3]thiazolo[5,4-b]pyridin-2-amine]"
6,≤ 100,"Cc1cc(-c2cnc3sc(N)nc3c2)cc2c1OCCN(c1ncnc(Cl)c1C(C)C)C2 [Compound 108, 6-{4-[6-chloro-5-(1-methylethyl)pyrimidin-4-yl]-9-methyl-2,3,4,5-tetrahydro-1,4-benzoxazepin-7-yl}[1,3]thiazolo[5,4-b]pyridin-2-amine]"
7,≤ 100,"CCNC(=O)c1nc(C)c(C(C)C)c(N2CCOc3c(C)cc(-c4cnc5sc(N)nc5c4)cc3C2)n1 [Compound 113, 4-[7-(2-amino[1,3]thiazolo[5,4-b]pyridin-6-yl)-9-methyl-2,3-dihydro-1,4-benzoxazepin-4(5H)-yl]-N-ethyl-6-methyl-5-(1-methylethyl)pyrimidine-2-carboxamide]"
8,≤ 100,"Cc1cc(-c2cnc3sc(N)nc3c2)cc2c1OCCN(c1ncncc1C(C)C)C2 [Compound 116, 6-{9-methyl-4-[5-(1-methylethyl)pyrimidin-4-yl]-2,3,4,5-tetrahydro-1,4-benzoxazepin-7-yl}[1,3]thiazolo[5,4-b]pyridin-2-amine]"
9,≤ 100,"CC(=O)NCc1nc(C)c(C(C)C)c(N2CCOc3c(C)cc(-c4cnc5sc(N)nc5c4)cc3C2)n1 [Compound 119, N-({4-[7-(2-amino[1,3]thiazolo[5,4-b]pyridin-6-yl)-9-methyl-2,3-dihydro-1,4-benzoxazepin-4(5H)-yl]-6-methyl-5-(1-methylethyl)pyrimidin-2-yl}methyl)acetamide]"
10,≤ 100,"CC(=O)c1c(C)ncnc1N1CCOc2c(C)cc(-c3cnc4sc(N)nc4c3)cc2C1 [Compound 125, 1-{4-[7-(2-amino[1,3]thiazolo[5,4-b]pyridin-6-yl)-9-methyl-2,3-dihydro-1,4-benzoxazepin-4(5H)-yl]-6-methylpyrimidin-5-yl}ethanone]"
